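How tested: cells in 96-well plates exposed to compound for 48 hours at five concentrations. Here, GI50 denotes the concentration required for 50% inhibition of growth. TGI is the concentration that stops growth completely.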
Columns and labels:
Experiment in all cases: growth of human tumour cells (NCI), 48 h
786-0 renal = tested on: 786-0 renal
A498 renal = tested on: A498 renal
A549 NSCLC = tested on: A549 NSCLC
ACHN renal = tested on: ACHN renal
BT-549 breast = tested on: BT-549 breast
CAKI-1 renal = tested on: CAKI-1 renal
CCRF-CEM leukemia = tested on: CCRF-CEM leukemia
COLO 205 colon = tested on: COLO 205 colon
DU-145 prostate = tested on: DU-145 prostate
EKVX NSCLC = tested on: EKVX NSCLC
HCT-116 colon = tested on: HCT-116 colon
HCT-15 colon = tested on: HCT-15 colon
HL-60(TB) leukemia = tested on: HL-60(TB) leukemia
HOP-62 NSCLC = tested on: HOP-62 NSCLC
HOP-92 NSCLC = tested on: HOP-92 NSCLC
HS 578T breast = tested on: HS 578T breast
HT29 colon = tested on: HT29 colon
IGROV1 ovarian = tested on: IGROV1 ovarian
K-562 leukemia = tested on: K-562 leukemia
KM12 colon = tested on: KM12 colon
LOX IMVI melanoma = tested on: LOX IMVI melanoma
M14 melanoma = tested on: M14 melanoma
MALME-3M melanoma = tested on: MALME-3M melanoma
MCF7 breast = tested on: MCF7 breast
MDA-MB-231 breast = tested on: MDA-MB-231 breast
MDA-MB-435 = tested on: MDA-MB-435
MOLT-4 leukemia = tested on: MOLT-4 leukemia
NCI-H226 lung = tested on: NCI-H226 lung
NCI-H23 lung = tested on: NCI-H23 lung
NCI-H460 lung = tested on: NCI-H460 lung
NCI/ADR-RES ovarian = tested on: NCI/ADR-RES ovarian
OVCAR-3 ovarian = tested on: OVCAR-3 ovarian
OVCAR-4 ovarian = tested on: OVCAR-4 ovarian
OVCAR-5 ovarian = tested on: OVCAR-5 ovarian
OVCAR-8 ovarian = tested on: OVCAR-8 ovarian
PC-3 prostate = tested on: PC-3 prostate
RPMI-8226 leukemia = tested on: RPMI-8226 leukemia
RXF 393 renal = tested on: RXF 393 renal
SF-268 CNS = tested on: SF-268 CNS
SF-295 CNS = tested on: SF-295 CNS
SF-539 CNS = tested on: SF-539 CNS
SK-MEL-2 melanoma = tested on: SK-MEL-2 melanoma
SK-MEL-28 melanoma = tested on: SK-MEL-28 melanoma
SK-MEL-5 melanoma = tested on: SK-MEL-5 melanoma
SK-OV-3 ovarian = tested on: SK-OV-3 ovarian
SN12C renal = tested on: SN12C renal
SNB-19 CNS = tested on: SNB-19 CNS
SNB-75 CNS = tested on: SNB-75 CNS
SR leukemia = tested on: SR leukemia
SW-620 colon = tested on: SW-620 colon
T-47D breast = tested on: T-47D breast
TK-10 renal = tested on: TK-10 renal
U251 CNS = tested on: U251 CNS
UACC-257 melanoma = tested on: UACC-257 melanoma
UACC-62 melanoma = tested on: UACC-62 melanoma
UO-31 renal = tested on: UO-31 renal

`COc1cc([N+](=O)[O-])c2ncccc2c1O` was tested, and the GI50 (786-0 renal) was 17.9 µM, the TGI (786-0 renal) was > 100 µM and the GI50 (A498 renal) was 1310 nM. It also gave a TGI (A498 renal) of 4.25 µM, a GI50 (A549 NSCLC) of 320 nM and a TGI (A549 NSCLC) of 1740 nM. The GI50 (ACHN renal) was 6.08 µM, the TGI (ACHN renal) was > 100 µM and the GI50 (BT-549 breast) was 21.2 µM. It also gave a TGI (BT-549 breast) of 87.3 µM, a GI50 (CAKI-1 renal) of 4.84 µM and a TGI (CAKI-1 renal) of 30.9 µM. For the same compound, the GI50 (CCRF-CEM leukemia) was 95.2 µM, the TGI (CCRF-CEM leukemia) was > 100 µM and the GI50 (COLO 205 colon) was 1700 nM. The TGI (COLO 205 colon) was 3.46 µM, the GI50 (DU-145 prostate) was 2320 nM and the TGI (DU-145 prostate) was 5.73 µM. The GI50 (EKVX NSCLC) was 18.8 µM, the TGI (EKVX NSCLC) was 78.1 µM and the GI50 (HCT-116 colon) was 4.26 µM. The TGI (HCT-116 colon) was 82.6 µM, the GI50 (HCT-15 colon) was 2560 nM and the TGI (HCT-15 colon) was 13.4 µM. The GI50 (HL-60(TB) leukemia) was 43.3 µM, the TGI (HL-60(TB) leukemia) was > 100 µM and the GI50 (HOP-62 NSCLC) was 2050 nM. For the same compound, the TGI (HOP-62 NSCLC) was 4.96 µM, the GI50 (HOP-92 NSCLC) was 47.1 µM and the TGI (HOP-92 NSCLC) was > 100 µM. For the same compound, the GI50 (HS 578T breast) was 2740 nM, the TGI (HS 578T breast) was 27.3 µM and the GI50 (HT29 colon) was 2260 nM. It also gave a TGI (HT29 colon) of 22.9 µM, a GI50 (IGROV1 ovarian) of 4.51 µM and a TGI (IGROV1 ovarian) of 25.5 µM. The GI50 (K-562 leukemia) was 38.2 µM, the TGI (K-562 leukemia) was > 100 µM and the GI50 (KM12 colon) was 2180 nM. For the same compound, the TGI (KM12 colon) was 7.02 µM, the GI50 (LOX IMVI melanoma) was 3.88 µM and the TGI (LOX IMVI melanoma) was 33.6 µM. The GI50 (M14 melanoma) was 1450 nM, the TGI (M14 melanoma) was 3.02 µM and the GI50 (MALME-3M melanoma) was 1990 nM. For the same compound, the TGI (MALME-3M melanoma) was 4.74 µM, the GI50 (MCF7 breast) was 2960 nM and the TGI (MCF7 breast) was > 100 µM. For the same compound, the GI50 (MDA-MB-231 breast) was 26.1 µM, the TGI (MDA-MB-231 breast) was > 100 µM and the GI50 (MDA-MB-435) was 3.53 µM. For the same compound, the TGI (MDA-MB-435) was 14.8 µM, the GI50 (MOLT-4 leukemia) was 49.1 µM and the TGI (MOLT-4 leukemia) was > 100 µM. It also gave a GI50 (NCI-H226 lung) of 2010 nM, a TGI (NCI-H226 lung) of 6.27 µM and a GI50 (NCI-H23 lung) of 1370 nM. The TGI (NCI-H23 lung) was 4.8 µM, the GI50 (NCI-H460 lung) was 2860 nM and the TGI (NCI-H460 lung) was > 100 µM. It also gave a GI50 (NCI/ADR-RES ovarian) of 13.3 µM, a TGI (NCI/ADR-RES ovarian) of 86.9 µM and a GI50 (OVCAR-3 ovarian) of 4.76 µM. The TGI (OVCAR-3 ovarian) was 37.3 µM, the GI50 (OVCAR-4 ovarian) was 26.6 µM and the TGI (OVCAR-4 ovarian) was > 100 µM. For the same compound, the GI50 (OVCAR-5 ovarian) was 5.09 µM, the TGI (OVCAR-5 ovarian) was > 100 µM and the GI50 (OVCAR-8 ovarian) was 8.71 µM. For the same compound, the TGI (OVCAR-8 ovarian) was > 100 µM, the GI50 (PC-3 prostate) was 6.54 µM and the TGI (PC-3 prostate) was > 100 µM. The GI50 (RPMI-8226 leukemia) was 27.7 µM, the TGI (RPMI-8226 leukemia) was > 100 µM and the GI50 (RXF 393 renal) was 10.6 µM. It also gave a TGI (RXF 393 renal) of 30.1 µM, a GI50 (SF-268 CNS) of 9.79 µM and a TGI (SF-268 CNS) of 67.1 µM. For the same compound, the GI50 (SF-295 CNS) was 2290 nM, the TGI (SF-295 CNS) was 6.77 µM and the GI50 (SF-539 CNS) was 2590 nM. It also gave a TGI (SF-539 CNS) of 9.41 µM, a GI50 (SK-MEL-2 melanoma) of 9.91 µM and a TGI (SK-MEL-2 melanoma) of 52.4 µM. It also gave a GI50 (SK-MEL-28 melanoma) of 2770 nM, a TGI (SK-MEL-28 melanoma) of 7.78 µM and a GI50 (SK-MEL-5 melanoma) of 1470 nM. For the same compound, the TGI (SK-MEL-5 melanoma) was 2900 nM, the GI50 (SK-OV-3 ovarian) was 3.36 µM and the TGI (SK-OV-3 ovarian) was 14.4 µM. For the same compound, the GI50 (SN12C renal) was 3.06 µM, the TGI (SN12C renal) was > 100 µM and the GI50 (SNB-19 CNS) was 3.19 µM. For the same compound, the TGI (SNB-19 CNS) was > 100 µM, the GI50 (SNB-75 CNS) was 2.96 µM and the TGI (SNB-75 CNS) was 17.2 µM. The GI50 (SR leukemia) was 20.6 µM, the TGI (SR leukemia) was > 100 µM and the GI50 (SW-620 colon) was 4.07 µM. The TGI (SW-620 colon) was > 100 µM, the GI50 (T-47D breast) was 27 µM and the TGI (T-47D breast) was > 100 µM. For the same compound, the GI50 (TK-10 renal) was 10.7 µM, the TGI (TK-10 renal) was 94.5 µM and the GI50 (U251 CNS) was 3.2 µM. For the same compound, the TGI (U251 CNS) was > 100 µM, the GI50 (UACC-257 melanoma) was 2560 nM and the TGI (UACC-257 melanoma) was 7.65 µM. For the same compound, the GI50 (UACC-62 melanoma) was 1940 nM, the TGI (UACC-62 melanoma) was 5.1 µM and the GI50 (UO-31 renal) was 2050 nM. The TGI (UO-31 renal) was 10.4 µM.
In the case of `CC(=O)OCCCCCn1cnc(C(N)=O)c1N`, the GI50 (SNB-75 CNS) is reported as 87.1 µM.

Reference: PubChem BioAssay (NCI)
